The values that follow come from US7235584B2, “Non-psychotropic cannabinoids” (Pharmos Corporation, priority 2000, dated 2007).

Experiment [1] deals with PGE2. As to the kind of experiment: Inhibition of prostaglandin (PGE2) synthesis in LPS-stimulated macrophage cell cultures. It is filed as cell-based. As for the experimental part: The inhibitory effect of the new derivatives of Dexanabinol on prostaglandin synthesis is evaluated in macrophage cell cultures following LPS exposure to induce the inflammatory response. These assays are an indication of the anti-inflammatory activity of the individual analogs.
The inhibitory effect of Dexanabinol new analogs on prostaglandin synthesis was evaluated in macrophage cell cultures. Macrophages were seeded in a 24 well NUNC plates, and incubated with DMEM medium for 24 hours to allow attachment to plastic. The wells were vacuumed and a different new analog is added for 1 hour. Treatments are done in triplicates. Following, LPS was added for a duration of 3–24 extra hours, to induce the inflammatory response. The supernatants were collected and analyzed for PGE2 by enzyme immunoassay technique Biotrak kit (Amersham Pharmacia Biotech).

Experiment [2] has as its system transient MCAo in rats. The experiment is described as follows: Transient middle cerebral artery occlusion (MCAo), infarct size evaluation. It is filed as in vivo. The source says:
The middle cerebral artery is the cerebral blood vessel most susceptible to stroke in humans. In animals, coagulation, permanent ligation or permanent placement of an occluding thread ink the artery produces a permanent focal stroke affecting the MCA territory. Transient ligation or occlusion results in transient focal stroke. Both transient and permanent focal strokes result in varying degrees of edema and infarction in the affected brain regions. The ability of compounds to reduce the volumes of edema and infarction is considered a measure of their potential as anti-stroke treatment.
• a. Male rats (8/treatment group) 320–380 gr. (Harlan Israel). • b. Halothane (Rhone Poulenc France) • c. Pentobarbitone (Pental Veterinary, CTS Israel). • d. Poly-L-Lysine (Sigma, USA). • e. Silk suture material 3-0 and 4-0. • f. Nylon (Polyamid) suture material 3-0. Four cm pieces were cut and positioned in a solution of 1% Poly-L-Lysine for 1 minute and dried in an oven (60 ° C.) for 60 minutes. The tip of each piece was rounded under a flame. • g. Saline (Teva Medical). • h. Blank cremophor ethanol cosolvent (Pharmos). • i. Dexanabinol in cremophor ethanol cosolvent 50 mg/ml. (Both Dexanabinol and its vehicle were diluted in saline prior to drug administration. • j. Analogs PRS-211,092, PRS-211,095, PRS-211,128 PRS-211,132 and PRS-211,220 in cremophor ethanol cosolvent, 50 mg/ml. • k. The analogs were diluted in saline prior to drug administration. Methods Transient MCAo
a. Surgical details of the MCAO method used for testing dexanabinol analogs, are presented in Belayev, et al., (Belayev, Busto, Weizhao, and Ginsberg, Stroke 26:2313–2319, 1995) which is incorporated herein in its entirety by reference.
b. Two hours after the start of MCAo, the animals were reanesthetized with halothane, the neck wound was re-opened and the nylon thread pulled out of the Internal carotid artery (ICA). The skin wound was then closed with 3-0 silk suture material and the animals allowed to recover from the anesthesia.
c. Three sets of animals were tested. In the first test immediately (2+0 hours) before thread removal the animals were injected IV with either analogs PRS 211,095, PRS 211,128, PRS 211,132, or Dexanabinol (PRS 211,007) each at a dosage of 5 mg/kg. One group of animals was treated with 5mi/kg vehicle alone. In another group, the animals subjected to “sham” operation, the suture was passed into the ICA, as described above, but immediately withdrawn. […] Laser Doppler Flow (LDF) determined the success of MCAo—a drop of more then 50% in cerebral blood flow was considered as a sign of successful MCAO. […]
A detailed investigation of neurological performance was carried out on the first, third and the 7th day after the MCAo. […] Animals were scored according to their performance: […]

Experiment [3] has as its system MPTP-mouse model of Parkinson's disease. The experiment is described as follows: MPTP model of Parkinson's disease, TH-IR neurons in SNpc. It is filed as in vivo, C57/BL mice. The conditions noted are these: seven days after MPTP. How it is done: MPTP-induced model of Parkinson's Disease (PD) in mice is used to evaluate the value of the novel PRS-211 compounds as therapeutic agents for PD.
The MPTP-mouse model of Parkinson's disease is used to test the efficacy of the compounds to prevent the onset of PD symptoms.
The protocol is based on Liberatore et al. (Liberatore, Jackson-Lewis, Vukosavic, Mandir, Vila , McAuliffe, Dawson, Dawson and Przedborski, Nature Medicine 5:1403–9, 1999).
The treatment groups are as follows: • Vehicle 5 ml/kg IP once just before MPTP administration. • Dexanabinol or analog 10 mg/kg IP once just before MPTP administration. • Dexanabinol or analog 20 mg/kg IP once just before MPTP administration. • Dexanabinol or analog 20 mg/kg IP once just before MPTP administration+additional dose 24 hours later.
Seven days after MPTP administration the mice were euthanized and their brains removed cut and stained using an antiserum to tyrosine hydroxylase (TH-IR), the rate limiting enzyme in monoamainergic neurons. Attention was focused on the Substantia nigra, pars compacta (SNpc), which are comprise of dompaminergic neurons that project to the striatum. It is these neurons that undergo degeneration in Parkinson's Disease. MPTP acts as a specific neurotoxin for these neurons, and the aim was to determine whether MPTP-induced nerve degeneration could be ameliorated by Dexanabinol at 10 (D-10), 20 (D-20) or 30 (D-30) mg/kg, or 2 injections of Dexanabinol at 20mg/kg (D-20×2) relative to vehicle alone (V).
The rescue effect of the various treatments was calculated by comparing the number of the TH-IR cells in each group relative to that in animals treated with MPTP alone, which was arbitrarily assigned a value of zero.

For experiment [4], the system named is cannabimimetic activity. The note with it: doses several thousand times higher than the ED50 of HU-210; cited from earlier work.

Each structure is given as a SMILES string.

The inhibition is how much of the control response was suppressed. Lower therefore signals little suppression. `CCCCCCC(C)(C)c1cc(O)c2c(c1)OC(C)(C)[C@H]1CC=C(Cn3cccn3)C[C@H]21` [211,220-000, (+)-(3S,4S)-6,6-Dimethyl-(1,1-dimethylheptyl)-1-hydroxy-9-(pyrazolomethyl)-6a,7,10,10a-tetrahydro-6H-dibenzo[b,d]pyran]: the inhibition at 10 µM in experiment [1] came to 59%.
On to `CCCCCCC(C)(C)c1cc(O)c2c(c1)OC(C)(C)C1CC=C(Cn3ccnc3)CC21.Cl` (single isomer, unassigned; (+)) [211,095-000, (+)-(3S ,4S )-6,6-Dimethyl-(1,1-dimethylheptyl)-1-hydroxy-9-(imidazolomethyl)-6a,7,10,10a-tetrahydro-6H-dibenzo[b,d]pyran], for which, in experiment [2] (posture and flexion reflex, days 1, 3, 7 after MCAo), the Behavioral/neurological outcome is “fewer neurological deficits and recovered faster”. Further, the Mortality rate result in experiment [2] (transient MCAo, 5 mg/kg IV at 2+0 hours) is “No mortality”. Moreover, the “reduction of infarct size” value in experiment [2] (transient MCAo, one week after the ischemic insult) is on record as 60%.
As to `CCCCCCC(C)(C)c1cc(O)c2c(c1)OC(C)(C)[C@H]1CC=C(CO)CC21` (stereo partly drawn) [211,007-000, 1,1 dimethyl heptyl-(3S,4S)-7-hydroxy-Δ^6-tetrahydrocannabinol], the “TH-IR SNpc (rescue effect relative to MPTP alone = 0)” value in experiment [3] (10 mg/kg IP) is −7.85; in experiment [3] (20 mg/kg IP), 28.52; in experiment [3] (30 mg/kg IP) it was 22.73; in experiment [3] (2 injections at 20 mg/kg), 8.5. In addition, the “cannabimimetic activity (in words)” value in experiment [4] is “inactive as a cannabimimetic”.
